Broadly, the IC50 is the concentration that gives 50% inhibition.

The target in one test is Delta-type opioid receptor (Homo sapiens, UniProt P41143). Kind of test: Displacement of [3H]DPDE from delta opioid receptor.
Sequence of Delta-type opioid receptor (P41143 whole entry): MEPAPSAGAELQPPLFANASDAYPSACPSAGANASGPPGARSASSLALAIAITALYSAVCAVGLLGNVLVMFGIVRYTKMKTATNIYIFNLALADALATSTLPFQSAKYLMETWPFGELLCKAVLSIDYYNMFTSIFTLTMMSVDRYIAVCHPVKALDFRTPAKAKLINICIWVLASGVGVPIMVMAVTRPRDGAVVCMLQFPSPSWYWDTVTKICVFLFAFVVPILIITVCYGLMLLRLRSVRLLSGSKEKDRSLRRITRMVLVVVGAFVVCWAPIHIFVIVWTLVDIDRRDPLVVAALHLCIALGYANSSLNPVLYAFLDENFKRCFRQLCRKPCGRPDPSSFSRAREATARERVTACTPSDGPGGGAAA
Turning to `CNC[C@H](Cc1ccc(O)cc1)N(Cc1ccccc1)C[C@H](Cc1ccc(O)cc1)NC`, the IC50 stood at 10200 nM. Still for that read-out and setting: as for `CN[C@@H](Cc1ccc(O)cc1)CN(C)[C@H](CNCc1ccccc1)Cc1ccc(O)cc1`, the figure is 3970 nM.

The target in another test is Mu-type opioid receptor (Rattus norvegicus, UniProt P33535). Kind of test: Displacement of [3H]DAMGO from mu opioid receptor in rat brain homogenate. The format is tissue-based. For orientation: Displacement assays read how much labelled ligand stays bound in the presence of the test substance.
Sequence of Mu-type opioid receptor (P33535 whole entry): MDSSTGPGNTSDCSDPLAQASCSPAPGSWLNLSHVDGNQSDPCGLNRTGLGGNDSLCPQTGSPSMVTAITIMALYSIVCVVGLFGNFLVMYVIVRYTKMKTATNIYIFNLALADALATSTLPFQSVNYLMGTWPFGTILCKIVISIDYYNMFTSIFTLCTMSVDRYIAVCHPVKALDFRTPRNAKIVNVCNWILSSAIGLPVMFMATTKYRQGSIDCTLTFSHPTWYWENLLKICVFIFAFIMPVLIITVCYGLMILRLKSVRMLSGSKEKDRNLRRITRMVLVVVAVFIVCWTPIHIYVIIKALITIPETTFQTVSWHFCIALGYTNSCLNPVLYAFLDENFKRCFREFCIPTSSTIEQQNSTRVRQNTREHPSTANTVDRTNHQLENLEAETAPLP
Compound `CCN[C@H](CN[C@H](CN[C@@H](Cc1ccccc1)CN1CCC[C@H]1CN[C@@H](CN[C@H](CN)CCSC)[C@@H](C)O)Cc1ccc(O)cc1)Cc1ccc(O)cc1` had an IC50 of 14 nM. On the same count and under the same terms, as for `CCN[C@H](CN[C@H](CN[C@H](CN[C@H](CN[C@@H](CN1CCC[C@H]1CN)[C@@H](C)O)Cc1ccccc1)Cc1ccc(O)cc1)Cc1ccc(O)cc1)Cc1ccc(O)cc1`, the figure is 155 nM. The same measure, in the same setting: as for `CCN[C@H](CN[C@H](CN[C@H](CN[C@H](CN[C@H](CN[C@H](CN)Cc1ccc(O)cc1)Cc1ccc(O)cc1)Cc1ccccc1)Cc1ccccc1)Cc1ccc(O)cc1)Cc1ccc(O)cc1`, the figure is 95 nM; as for `CCN[C@H](CN[C@H](CN[C@H](CN[C@H](CN[C@@H](CN[C@H](CN)Cc1ccc(O)cc1)[C@@H](C)O)Cc1ccccc1)Cc1ccc(O)cc1)Cc1ccc(O)cc1)Cc1ccc(O)cc1`, 200 nM. On the same count and under the same terms, with `CCN[C@H](CN[C@H](CN[C@H](CN[C@H](CN[C@@H](CN[C@H](CN)CCSC)[C@@H](C)O)Cc1ccccc1)Cc1ccc(O)cc1)Cc1ccc(O)cc1)Cc1ccc(O)cc1` the figure was 181 nM; with `NC[C@H](Cc1ccc(O)cc1)NC[C@@H](N)Cc1ccc(O)cc1`, 6040 nM. `CCN[C@H](CN[C@H](CN[C@H](CN[C@H](CN[C@H](CN[C@H](CN)Cc1ccccc1)Cc1ccc(O)cc1)Cc1ccccc1)Cc1ccc(O)cc1)Cc1ccc(O)cc1)Cc1ccc(O)cc1`: the concentration for half-maximal inhibition (IC50) was 258 nM. Against the preceding compound, the IC50 is about 23-fold lower. On the same count and under the same terms, with `CNC[C@H](Cc1ccc(O)cc1)N(Cc1ccccc1)C[C@H](Cc1ccc(O)cc1)NC` the figure was 1210 nM; with `CCN[C@H](CN[C@H](CN[C@@H](Cc1ccccc1)CN1CCC[C@H]1CN[C@H](CN[C@H](CN)CCSC)Cc1ccc(O)cc1)Cc1ccc(O)cc1)Cc1ccc(O)cc1`, 34 nM; with `CCN[C@H](CN[C@H](CN[C@H](CN[C@H](CN[C@@H](CN1CCC[C@H]1CN)[C@@H](C)O)Cc1ccccc1)Cc1ccccc1)Cc1ccc(O)cc1)Cc1ccc(O)cc1`, 82 nM. Still for that read-out and setting: with `CCN[C@H](CN[C@H](CN[C@@H](Cc1ccccc1)CN1CCC[C@H]1CN[C@H](CN)Cc1ccc(O)cc1)Cc1ccc(O)cc1)Cc1ccc(O)cc1` the figure was 24 nM. `CCN[C@H](CN[C@H](CN[C@H](CN[C@H](CN)Cc1ccc(O)cc1)Cc1ccc(O)cc1)Cc1ccc(O)cc1)Cc1ccc(O)cc1`: the half-inhibitory concentration (IC50) is 96 nM. The same measure, in the same setting: as for `CCN[C@H](CN[C@H](CN[C@H](CN[C@H](CN[C@H](CN[C@H](CN)CCSC)Cc1ccc(O)cc1)Cc1ccccc1)Cc1ccccc1)Cc1ccc(O)cc1)Cc1ccc(O)cc1`, the figure is 126 nM; as for `CCN[C@H](CN[C@H](CN[C@@H](Cc1ccccc1)CN1CCC[C@H]1CN[C@@H](CN[C@H](CN)Cc1ccc(O)cc1)[C@@H](C)O)Cc1ccc(O)cc1)Cc1ccc(O)cc1`, 20 nM; as for `CCN[C@H](CN[C@H](CN[C@H](CN[C@H](CN[C@@H](CN[C@H](CN)Cc1ccc(O)cc1)[C@@H](C)O)Cc1ccccc1)Cc1ccccc1)Cc1ccc(O)cc1)Cc1ccc(O)cc1`, 78 nM. Still for that read-out and setting: as for `CCN[C@H](CN[C@H](CN[C@@H](Cc1ccccc1)CN1CCC[C@H]1CN[C@@H](CN[C@H](CN)Cc1ccccc1)[C@@H](C)O)Cc1ccc(O)cc1)Cc1ccc(O)cc1`, the figure is 19 nM. On the same count and under the same terms, as for `CCN[C@H](CN[C@H](CN[C@H](CN[C@H](CN[C@@H](CN[C@H](CN)Cc1ccccc1)[C@@H](C)O)Cc1ccccc1)Cc1ccccc1)Cc1ccc(O)cc1)Cc1ccc(O)cc1`, the figure is 108 nM. Regarding `CCN[C@H](CN[C@H](CN[C@H](CN[C@H](CN[C@H](CN[C@H](CN)Cc1ccc(O)cc1)Cc1ccc(O)cc1)Cc1ccccc1)Cc1ccc(O)cc1)Cc1ccc(O)cc1)Cc1ccc(O)cc1`, the IC50 was determined as 261 nM. On the same count and under the same terms, with `CCN[C@H](CN[C@H](CN[C@@H](Cc1ccccc1)CN1CCC[C@H]1CN[C@H](CN[C@H](CN)CO)Cc1ccc(O)cc1)Cc1ccc(O)cc1)Cc1ccc(O)cc1` (stereo in doubt) the figure was 67 nM; with `CCN[C@H](CN[C@H](CN[C@H](CN[C@H](CN[C@@H](Cc1ccc(O)cc1)CN1CCC[C@H]1CN)Cc1ccccc1)Cc1ccccc1)Cc1ccc(O)cc1)Cc1ccc(O)cc1`, 48 nM. As for `CCN[C@H](CN[C@H](CN)Cc1ccc(O)cc1)Cc1ccc(O)cc1`, the IC50 was 344 nM. Against the preceding compound, the IC50 is about 7.2-fold higher.

For `CCN[C@H](CN[C@H](CN[C@@H](Cc1ccc(O)cc1)CN1CCC[C@H]1CN)Cc1ccc(O)cc1)Cc1ccc(O)cc1`, the IC50 stood at 13 nM. Still for that read-out and setting: with `CCN[C@H](CN[C@H](CN[C@H](CN[C@H](CN[C@@H](CN[C@@H](CN)CO)[C@@H](C)O)Cc1ccccc1)Cc1ccccc1)Cc1ccc(O)cc1)Cc1ccc(O)cc1` the figure was 90 nM. Same read-out and setting: as for `CCN[C@H](CN[C@H](CN[C@H](CN[C@H](CN[C@H](CN[C@@H](CN)CO)Cc1ccc(O)cc1)Cc1ccccc1)Cc1ccccc1)Cc1ccc(O)cc1)Cc1ccc(O)cc1`, the figure is 66 nM; as for `CCN[C@H](CN[C@H](CN[C@@H](Cc1ccccc1)CN1CCC[C@H]1CN[C@@H](Cc1ccc(O)cc1)CN1CCC[C@H]1CN)Cc1ccc(O)cc1)Cc1ccc(O)cc1`, 18 nM. With `CCN[C@H](CN[C@H](CN[C@H](CN[C@H](CN[C@@H](CN[C@@H](CN)CO)[C@@H](C)O)Cc1ccccc1)Cc1ccc(O)cc1)Cc1ccc(O)cc1)Cc1ccc(O)cc1`, the IC50 is 163 nM. Compared with the last compound, the IC50 is about 9.1-fold higher. The same measure, in the same setting: as for `CCN[C@H](CN[C@H](CN[C@@H](Cc1ccccc1)CN1CCC[C@H]1CN[C@H](CN[C@H](CN)Cc1ccc(O)cc1)Cc1ccc(O)cc1)Cc1ccc(O)cc1)Cc1ccc(O)cc1`, the figure is 27 nM. Take `CCN[C@H](CN[C@H](CN[C@@H](Cc1ccc(O)cc1)CN1CCC[C@H]1CN[C@H](CN[C@H](CN)CCSC)Cc1ccc(O)cc1)Cc1ccc(O)cc1)Cc1ccc(O)cc1`: the half-inhibitory concentration (IC50) came to 113 nM. Still for that read-out and setting: with `CCN[C@H](CN[C@H](CN[C@H](CN[C@H](CN[C@H](CN[C@H](CN)Cc1ccccc1)Cc1ccc(O)cc1)Cc1ccccc1)Cc1ccccc1)Cc1ccc(O)cc1)Cc1ccc(O)cc1` the figure was 176 nM.

Compound `CCN[C@H](CN[C@H](CN[C@@H](Cc1ccc(O)cc1)CN1CCC[C@H]1CN[C@H](CN[C@H](CN)Cc1ccccc1)Cc1ccc(O)cc1)Cc1ccc(O)cc1)Cc1ccc(O)cc1` yielded an IC50 of 83 nM. Same read-out and setting: with `CCN[C@H](CN[C@H](CN[C@@H](Cc1ccc(O)cc1)CN1CCC[C@H]1CN[C@H](CN[C@H](CN)CO)Cc1ccc(O)cc1)Cc1ccc(O)cc1)Cc1ccc(O)cc1` the figure was 89 nM.

As for `CCN[C@H](CN[C@H](CN[C@H](CN)Cc1ccc(O)cc1)Cc1ccc(O)cc1)Cc1ccc(O)cc1`, the IC50 was determined as 138 nM. Compared with the last compound, the IC50 is about 1.6-fold higher. With `CCN[C@H](CN[C@H](CN[C@@H](Cc1ccc(O)cc1)CN1CCC[C@H]1CN[C@@H](CN[C@H](CN)Cc1ccccc1)[C@@H](C)O)Cc1ccc(O)cc1)Cc1ccc(O)cc1`, the IC50 was 128 nM. Same read-out and setting: as for `CCN[C@H](CN[C@H](CN[C@@H](Cc1ccc(O)cc1)CN1CCC[C@H]1CN[C@@H](CN[C@H](CN)Cc1ccc(O)cc1)[C@@H](C)O)Cc1ccc(O)cc1)Cc1ccc(O)cc1`, the figure is 61 nM; as for `CCN[C@H](CN[C@H](CN[C@@H](Cc1ccccc1)CN1CCC[C@H]1CN[C@@H](CN1CCC[C@H]1CN)[C@@H](C)O)Cc1ccc(O)cc1)Cc1ccc(O)cc1`, 15 nM; as for `CCN[C@H](CN[C@H](CN[C@@H](Cc1ccc(O)cc1)CN1CCC[C@H]1CN[C@H](CN[C@H](CN)Cc1ccc(O)cc1)Cc1ccc(O)cc1)Cc1ccc(O)cc1)Cc1ccc(O)cc1`, 87 nM. On the same count and under the same terms, as for `CCN[C@H](CN[C@H](CN[C@H](CN)Cc1ccccc1)Cc1ccc(O)cc1)Cc1ccc(O)cc1`, the figure is 47 nM; as for `CCN[C@H](CN[C@H](CN[C@@H](Cc1ccc(O)cc1)CN1CCC[C@H]1CN[C@@H](Cc1ccc(O)cc1)CN1CCC[C@H]1CN)Cc1ccc(O)cc1)Cc1ccc(O)cc1`, 79 nM. For the compound `CCN[C@H](CN[C@H](CN[C@H](CN[C@H](CN[C@H](CN[C@H](CN)CCSC)Cc1ccc(O)cc1)Cc1ccccc1)Cc1ccc(O)cc1)Cc1ccc(O)cc1)Cc1ccc(O)cc1`, the IC50 stood at 260 nM.

With `CCN[C@H](CN[C@H](CN[C@H](CN[C@H](CN[C@@H](CN[C@H](CN)CCSC)[C@@H](C)O)Cc1ccccc1)Cc1ccccc1)Cc1ccc(O)cc1)Cc1ccc(O)cc1`, the half-inhibitory concentration (IC50) was found to be 115 nM.

The compound `CCN[C@H](CN[C@H](CN[C@@H](Cc1ccc(O)cc1)CN1CCC[C@H]1CN[C@@H](CN1CCC[C@H]1CN)[C@@H](C)O)Cc1ccc(O)cc1)Cc1ccc(O)cc1` gave an IC50 of 41 nM. The same measure, in the same setting: as for `CCN[C@H](CN[C@H](CN[C@H](CN[C@H](CN[C@H](CN[C@@H](CN)CO)Cc1ccc(O)cc1)Cc1ccccc1)Cc1ccc(O)cc1)Cc1ccc(O)cc1)Cc1ccc(O)cc1`, the figure is 345 nM. As to `CCN[C@H](CN[C@H](CN[C@@H](Cc1ccccc1)CN1CCC[C@H]1CN[C@@H](CN[C@@H](CN)CO)[C@@H](C)O)Cc1ccc(O)cc1)Cc1ccc(O)cc1`, the 50% inhibitory concentration (IC50) worked out at 19 nM. Still for that read-out and setting: with `CCN[C@H](CN[C@H](CN[C@H](CN[C@H](CN[C@H](CN)Cc1ccc(O)cc1)Cc1ccc(O)cc1)Cc1ccc(O)cc1)Cc1ccc(O)cc1)Cc1ccc(O)cc1` the figure was 146 nM; with `CCN[C@H](CN[C@H](CN[C@H](CN[C@H](CN[C@@H](Cc1ccc(O)cc1)CN1CCC[C@H]1CN)Cc1ccccc1)Cc1ccc(O)cc1)Cc1ccc(O)cc1)Cc1ccc(O)cc1`, 148 nM; with `CCN[C@H](CN[C@H](CN[C@@H](Cc1ccccc1)CN1CCC[C@H]1CN[C@H](CN[C@H](CN)Cc1ccccc1)Cc1ccc(O)cc1)Cc1ccc(O)cc1)Cc1ccc(O)cc1`, 27 nM. Still for that read-out and setting: with `CCN[C@H](CN[C@H](CN[C@@H](Cc1ccc(O)cc1)CN1CCC[C@H]1CN[C@@H](CN[C@H](CN)CCSC)[C@@H](C)O)Cc1ccc(O)cc1)Cc1ccc(O)cc1` the figure was 112 nM; with `CCN[C@H](CN[C@H](CN[C@@H](Cc1ccc(O)cc1)CN1CCC[C@H]1CN[C@@H](CN[C@@H](CN)CO)[C@@H](C)O)Cc1ccc(O)cc1)Cc1ccc(O)cc1`, 32 nM; with `CCN[C@H](CN[C@H](CN[C@@H](Cc1ccccc1)CN1CCC[C@H]1CN[C@H](CN[C@H](CN)CO)Cc1ccc(O)cc1)Cc1ccc(O)cc1)Cc1ccc(O)cc1` (stereo in doubt; 5), 19 nM.

The target in another test is Kappa-type opioid receptor (Homo sapiens, UniProt P41145). Kind of test: Displacement of [3H]U-69593 from kappa opioid receptor.
Sequence of Kappa-type opioid receptor (P41145 whole entry): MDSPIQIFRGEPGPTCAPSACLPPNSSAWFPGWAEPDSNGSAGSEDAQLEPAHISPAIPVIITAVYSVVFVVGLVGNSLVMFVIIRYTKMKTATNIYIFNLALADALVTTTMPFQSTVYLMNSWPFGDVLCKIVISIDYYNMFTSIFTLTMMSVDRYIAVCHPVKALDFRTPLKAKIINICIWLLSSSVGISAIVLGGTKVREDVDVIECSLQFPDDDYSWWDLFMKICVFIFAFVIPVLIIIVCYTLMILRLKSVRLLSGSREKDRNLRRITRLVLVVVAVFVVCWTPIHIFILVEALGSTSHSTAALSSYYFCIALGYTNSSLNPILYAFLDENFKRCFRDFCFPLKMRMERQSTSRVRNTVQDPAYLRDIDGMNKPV
Turning to `NC[C@H](Cc1ccc(O)cc1)NC[C@@H](N)Cc1ccc(O)cc1`, the IC50 was 32200 nM. `CNC[C@H](Cc1ccc(O)cc1)N(Cc1ccccc1)C[C@H](Cc1ccc(O)cc1)NC` registered an IC50 of 11100 nM. The same measure, in the same setting: with `CN[C@@H](Cc1ccc(O)cc1)CN(C)[C@H](CNCc1ccccc1)Cc1ccc(O)cc1` the figure was 3850 nM.

The record behind these values is ChEMBL document CHEMBL1145313, “Identification of potent and highly selective chiral tri-amine and tetra-amine mu opioid receptors ligands: an example of lead optimization using mixture-based libraries” (Bioorg Med Chem Lett, 2006).
